Source: patent US11439622B2 (OXFORD UNIVERSITY INNOVATION LIMITED, priority 2015, dated 2022)

What was measured:
[1] = test system: K. pneumoniae 5055 (control); assay: Meropenem MIC, CLSI broth microdilution; format: cell-based; settings: for Meropenem MIC in presence of inhibitor: inhibitor 10 μg/ml
Protocol: (§1) CLSI, Wayne, Pa.) in the absence of each inhibitor or in its presence at the concentration stated. In each case the inhibitor solution was added to broth at 0.1% v/v to achieve the required final concentration; DMSO was used to dissolve inhibitors.
(§2) For initial evaluations of the in vitro cell based activity of indole carboxylates we used well characterized bacterial strains (e.g. K. pneumoniae 5055; E. coli ATCC 25713) transformed with broad host range plasmids (e.g. pSU18 and derivatives) encoding few metallo-β-lactamases produced using their physiological (integron) promoters. We also tested a clinical strain, IR60 in the initial studies.^8

K. pneumoniae A34 VIM-4 = assay: Meropenem MIC, clinically derived strains; format: cell-based; settings: for Meropenem MIC in presence of inhibitor: inhibitor 10 μg/ml
Protocol: as §1
(§3) The results shown in Table 2 reveal that compounds of formula (I) are active in cells, including clinically relevant bacterial strains. Further studies were carried out to determine if compound of formula (I) potentiates BLA activity in clinically derived strains containing IMP-4, […] or NDM-1, which are the most commonly observed MBLs in clinical isolates.

K. pneumoniae B12 IMP-4 = assay: Meropenem MIC, clinically derived strains; format: cell-based; settings: for Meropenem MIC in presence of inhibitor: inhibitor 10 μg/ml
Protocol: as §1, §3

K. pneumoniae 5055 IMP-1 = assay: Meropenem MIC, clinically derived strains; format: cell-based; settings: for Meropenem MIC in presence of inhibitor: inhibitor 10 μg/ml
Protocol: as §1, §3

K. pneumoniae IR16 NDM-1 = assay: Meropenem MIC, clinically derived strains; format: cell-based; settings: for Meropenem MIC in presence of inhibitor: inhibitor 10 μg/ml
Protocol: as §1, §3

K. pneumoniae B19 IMP-4 = assay: Meropenem MIC, clinically derived strains; format: cell-based; settings: for Meropenem MIC in presence of inhibitor: inhibitor 10 μg/ml
Protocol: as §1, §3

E. coli 25922 (control) = assay: Meropenem MIC, CLSI broth microdilution; format: cell-based; settings: inhibitor 10 μg/ml
Protocol: as §1, §2

[2] = test system: K. pneumoniae 5055 + NDM-1; assay: Meropenem MIC, CLSI broth microdilution; format: cell-based; settings: inhibitor 10 μg/ml
Protocol: as §1, §2

IMP-1 (Imipenemase-1) = IMP-1 (Imipenemase-1) (Serratia marcescens, UniProt P52699); assay: Enzyme inhibition assay, IMP-1; format: biochemical; settings: read-out: pIC50 IMP-1 (converted)
Protocol: (§4) The biological activity of the compounds of the present invention was tested using standard assay protocols.^7 The following representative enzymes NDM-1 (New Delhi metallo-β-lactamase-1), IMP-1 (Imipenemase-1) and VIM-2 (Veronese metallo-β-lactamase-2) were selected from different clinically relevant B1 metallo-β-lactamases.

[3] = target: VIM-2 (Veronese metallo-β-lactamase-2) (Escherichia coli, UniProt Q5U7L7); assay: Enzyme inhibition assay, VIM-2; format: biochemical; settings: read-out: pIC50 VIM-2 (converted)
Protocol: as §4

E. coli EC10 NDM-1 = assay: Meropenem MIC, clinically derived strains; format: cell-based; settings: inhibitor 10 μg/ml
Protocol: as §1

[4] = target: NDM-1 (New Delhi metallo-β-lactamase-1) (Klebsiella pneumoniae, UniProt C7C422); assay: Enzyme inhibition assay, NDM-1; format: biochemical; settings: read-out: pIC50 NDM-1 (converted)
Protocol: as §4

E. coli IR60 = assay: Meropenem MIC, CLSI broth microdilution; format: cell-based; settings: inhibitor 10 μg/ml
Protocol: as §1, §2
IR60 is a clinically strain original from India.^8 IR60 is also a multiresistant clinical strain.

[5] = test system: K. pneumonia strain containing most clinically significant MBLs; assay: Screening against K. pneumonia strain containing MBLs, overall statement; format: cell-based; settings: Table 4
Protocol: as §1

NDM-1 (New Delhi metallo-β-lactamase-1), sequence (C7C422 29-270, looked up, species assumed): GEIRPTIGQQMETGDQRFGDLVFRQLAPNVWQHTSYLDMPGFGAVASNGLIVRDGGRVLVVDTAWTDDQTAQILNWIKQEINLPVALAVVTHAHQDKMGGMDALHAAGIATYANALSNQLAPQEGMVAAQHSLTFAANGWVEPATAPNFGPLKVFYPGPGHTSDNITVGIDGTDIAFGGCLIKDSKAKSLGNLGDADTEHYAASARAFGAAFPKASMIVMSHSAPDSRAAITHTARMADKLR
IMP-1 (Imipenemase-1), sequence (P52699 19-246, looked up, species assumed): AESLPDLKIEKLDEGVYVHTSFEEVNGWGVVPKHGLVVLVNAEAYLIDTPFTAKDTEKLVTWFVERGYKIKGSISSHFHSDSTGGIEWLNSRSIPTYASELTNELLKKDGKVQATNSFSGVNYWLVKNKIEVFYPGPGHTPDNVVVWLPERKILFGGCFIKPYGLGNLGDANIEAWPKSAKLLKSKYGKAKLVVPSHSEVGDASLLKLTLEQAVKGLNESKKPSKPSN

Compound | Meropenem MICs ([1]; meropenem alone) | Meropenem MIC (K. pneumoniae A34 VIM-4; meropenem alone) | Meropenem MIC (K. pneumoniae B12 IMP-4; meropenem alone) | Meropenem MIC (K. pneumoniae 5055 IMP-1; meropenem alone) | Meropenem MIC (K. pneumoniae IR16 NDM-1; meropenem alone) | Meropenem MIC (K. pneumoniae B19 IMP-4; meropenem alone) | Meropenem MIC in presence of inhibitor (E. coli 25922 (control)) | Meropenem MIC in presence of inhibitor [1] | Meropenem MIC in presence of inhibitor [2] | IC50 (IMP-1 (Imipenemase-1)) | Meropenem MIC in presence of inhibitor (K. pneumoniae A34 VIM-4) | Meropenem MIC in presence of inhibitor (K. pneumoniae B12 IMP-4) | Meropenem MIC in presence of inhibitor (K. pneumoniae 5055 IMP-1) | Meropenem MIC in presence of inhibitor (K. pneumoniae IR16 NDM-1) | Meropenem MIC in presence of inhibitor (K. pneumoniae B19 IMP-4) | IC50 [3] | Meropenem MIC in presence of inhibitor (E. coli EC10 NDM-1) | IC50 [4] | Meropenem MIC in presence of inhibitor (E. coli IR60) | activity against all the MBLs [5]
C[C@@H](O)[C@H]1C(=O)N2C(C(=O)O)=C(S[C@@H]3CN[C@H](C(=O)N(C)C)C3)[C@H](C)[C@H]12 [Meropenem, meropenem, reference compound] | < 0.25 µg/mL | 64 µg/mL | 16 µg/mL | 16 µg/mL | 16 µg/mL | 16 µg/mL | – | – | – | – | – | – | – | – | – | – | – | – | – | –
CC(C)c1cccc2c(-c3ccc(F)cc3)c(C(=O)O)[nH]c12 [Example 53, 3-(4-fluorophenyl)-7-isopropyl-1H-indole-2-carboxylic acid] | – | – | – | – | – | – | < 0.25 µg/mL | < 0.25 µg/mL | 4 µg/mL | 501 nM | 4 µg/mL | 2 µg/mL | 2 µg/mL | 1 µg/mL | 1 µg/mL | 31.6 nM | 1 µg/mL | 12.6 nM | < 0.25 µg/mL | –
CC(C)c1cccc2c(-c3cc(Cl)cc(Cl)c3)c(C(=O)O)[nH]c12 [Example 76, 3-(3,5-dichlorophenyl)-7-isopropyl-1H-indole-2-carboxylic acid] | – | – | – | – | – | – | – | – | – | 15.8 nM | – | – | – | – | – | 3.98 nM | – | 7.94 nM | – | good activity
Cc1cccc2c(-c3ccc(S(C)(=O)=O)cc3)c(C(=O)O)[nH]c12 [Example 12, 7-methyl-3-(4-(methylsulfonyl)phenyl)-1H-indole-2-carboxylic acid] | – | – | – | – | – | – | < 0.25 µg/mL | < 0.25 µg/mL | 8 µg/mL | 12600 nM | 16 µg/mL | 8 µg/mL | 8 µg/mL | 1 µg/mL | 8 µg/mL | 316 nM | 8 µg/mL | 12.6 nM | < 0.5 µg/mL | –
Cc1cccc2c(-c3ccc(S(N)(=O)=O)cc3)c(C(=O)O)[nH]c12 [Example 6, 7-methyl-3-(4-sulfamoylphenyl)-1H-indole-2-carboxylic acid] | – | – | – | – | – | – | < 0.25 µg/mL | < 0.25 µg/mL | 1 µg/mL | 10000 nM | 16 µg/mL | 16 µg/mL | 8 µg/mL | 2 µg/mL | 8 µg/mL | 316 nM | 8 µg/mL | 15.8 nM | < 0.25 µg/mL | –
